Earlier results in patent US8329187B2, “Compositions of spores of non pathogenic bacteria” (Neuroscienze Pharmaness S.C. A.R.L., priority 2009, dated 2012).

Test system: gastrointestinal transit
Details: shown in example 6 of EP 1,602,658

Cc1c(C(=O)c2cccc3ccccc23)c2cccc3c2n1[C@H](CN1CCOCC1)CO3 [WIN 55.212-2]
effect on gastrointestinal transit (constipating activity): slackens the gastrointestinal transit
